Reference: patent publication US9925240B2, “Methods of treating and preventing cancer drug resistance” (Genentech, Inc., priority 2013, dated 2018)

Key:
HCC4006-ER cells = experiment: Cell viability assay (CellTiter-Glo) in erlotinib-resistant HCC4006-ER cells; type: cell-based; conditions: for Ability to overcome resistance to erlotinib (cell viability, FIG. 3 and FIG. 5): 72 h, in combination with erlotinib
Experimental: 10^3 cells were plated in each well of 384-well plate. 24 hours after plating, added indicated concentration drug to each well. 72 hours after dosing, added CellTiter-Glo Reagent (CellTiter Glo Luminescent Cell Viability Assay, Promega) to each well, incubate the plate at room temperature for 10 minutes, record luminescence by EnVision 2101 Multilabel Reader (PerkinElmer).
Drug-sensitive cells (HCC4006 and HCC827) were treated with 2 uM erlotinib for 2 months. Fresh media containing 2 uM erlotinib were replaced every 3 to 4 days. Viable cells were collected as erlotinib-resistant cells.

HCC4006 cells = experiment: Clonogenic assay (crystal violet) in HCC4006 cells; type: cell-based; conditions: erlotinib 1 μM plus PD173074 0.5 μM, continuous treatment, stained at 6 weeks
Experimental: 10^5 cells were plated in 10 cm^2 plate. 24 hours after plating, media was removed and replaced with media containing indicated drugs. Fresh media was replaced every 3 to 4 days until cells reached confluence (4 weeks) or 6 weeks to stop culture. Media was removed, cells were washed with PBS, then stained with 0.5% crystal violet for 20 minutes at room temperature. Dye was removed, cell monolayers were washed with water, dry the plate and take a picture as record.

| Structure (SMILES) | Sensitivity of cells to erlotinib (cell viability, annexin V, FIG. 1A-C) (HCC4006-ER cells; HCC4006-ER vs parental HCC4006, 72 h) | Ability to overcome resistance to erlotinib (cell viability, FIG. 3 and FIG. 5) (HCC4006-ER cells; HCC4006-ER cells) | Screen of small molecule inhibitors in the presence or absence of erlotinib (growth inhibition, FIG. 8) (HCC4006-ER cells; HCC4006-ER cells, with or without erlotinib) | Development of resistance to erlotinib (FIG. 6) (HCC4006 cells) |
| --- | --- | --- | --- | --- |
| C#Cc1cccc(Nc2ncnc3cc(OCCOC)c(OCCOC)cc23)c1 [erlotinib, N-(3-ethynylphenyl)-6,7-bis(2-methoxyethoxy)-4-quinazolinamine] | resistant |  |  |  |
| CCN(CC)CCCCNc1ncc2cc(-c3cc(OC)cc(OC)c3)c(NC(=O)NC(C)(C)C)nc2n1 [PD173074, N-[2-[[4-(diethylamino)butyl]amino]-6-(3,5-dimethoxyphenyl)pyrido[2,3-d]pyrimidin-7-yl]-N′-(1,1-dimethylethyl)-urea] |  | overcame resistance to erlotinib | could reverse resistance to erlotinib | can suppress the development of resistance to erlotinib |
| Nc1nc(Nc2ccc3c(c2)CCC(N2CCCC2)CC3)nn1-c1cc2c(nn1)-c1ccccc1CCC2 (centres unmarked) [R428] |  | cannot overcome resistance to erlotinib |  |  |
